# Measured values as given in the NIST ThermoML archive (doi:10.1021/je0502905).
# Numbers after ± are expanded uncertainties.
# Legend:
# [1] = Liquid; for mass density: 293.15 K, 101.33 kPa
# [2] = refractive index (Na D-line) (dimensionless); conditions: 293.15 K; 101.33 kPa; Liquid; Standard Abbe refractometry
mass density [1] [kg/m3],vapor or sublimation pressure ([1]; 379.88 K) [kPa],vapor or sublimation pressure ([1]; 401.28 K) [kPa],vapor or sublimation pressure ([1]; 415.26 K) [kPa],vapor or sublimation pressure ([1]; 423.97 K) [kPa],refractive index [2],vapor or sublimation pressure ([1]; 375.63 K) [kPa],vapor or sublimation pressure ([1]; 392.7 K) [kPa],vapor or sublimation pressure ([1]; 403.8 K) [kPa],vapor or sublimation pressure ([1]; 410.79 K) [kPa],vapor or sublimation pressure ([1]; 359.51 K) [kPa],vapor or sublimation pressure ([1]; 379.52 K) [kPa],vapor or sublimation pressure ([1]; 392.57 K) [kPa],vapor or sublimation pressure ([1]; 400.69 K) [kPa],SMILES
717.6 ± 0.7,26.66 ± 0.25,53.33 ± 0.3,79.99 ± 0.42,101.32 ± 0.49,1.4055 ± 0.0007,–,–,–,–,–,–,–,–,CCCCCCCCC [nonane]
814.5 ± 0.8,–,–,–,–,1.4098 ± 0.0007,26.66 ± 0.31,53.33 ± 0.37,79.99 ± 0.53,101.32 ± 0.61,–,–,–,–,CCCCCO [pentan-1-ol]
811.2 ± 0.8,–,–,–,–,1.4008 ± 0.0007,–,–,–,–,26.66 ± 0.27,53.33 ± 0.32,79.99 ± 0.45,101.32 ± 0.53,CCCCC(C)=O [2-hexanone]
